Laboratory results reported in patent US20260274829A1, “NEW E3 UBIQUITIN LIGASE LIGAND, PROTEIN DEGRADATION AGENT AND USE THEREOF” (GLUETACS THERAPEUTICS (SHANGHAI) CO., LTD., priority 2023, published 2026).

How the values were obtained:
Type in all cases: cell-based
CK1a = target: T1, CK1a (Homo sapiens, UniProt P48729+Q96SW2); assay: Western blot degradation of CK1a in hPBMC
T1 construct: endogenous in cells; host or cells: hPBMC
Method: (§1) Conventional Western blot assay was performed to evaluate the effects of the compounds of the present disclosure on the expression of target proteins in cells.
(§2) • (1) Cell Seeding and Protein Harvesting: The selected cells were processed according to the cell seeding procedure and protein harvesting procedure in Table III-2.
(§3) • (2) To the collected supernatant, 5×SDS sample loading buffer was added, followed by denaturation at 95° C. for 5 minutes. The denatured samples were then separated by SDS-PAGE electrophoresis on a polyacrylamide gel. Proteins were transferred to a nitrocellulose membrane ([…] NC membrane), blocked with blocking buffer at room temperature for 1 hour, and subjected to antibody incubation and development procedures according to the antibody manufacturer's instructions (Cell Signaling Technology).
(§4) Half-Maximal Degradation Concentration value (the drug concentration required for degrading proteins by 50%, abbreviated as DC50) reads method: comparing the grayscale values of Western blot bands from drug-treated samples with those from blank DMSO-treated controls, and identifying the drug concentration range at which the grayscale value is half that of the DMSO-treated control bands.
(§5) DC50 values can be calculated using ImageJ software to measure grayscale values of Western blot bands from drug-treated samples. The concentration-response curve is fitted to estimate the drug concentration corresponding to half the grayscale value.
(§6) Target protein remaining (0%) refers to the percentage of target protein remaining in hPBMC cells after treatment with protein degrader compounds.
(§7) Calculation method for target protein remaining (0%): Use ImageJ software to measure grayscale values of Western blot bands from drug (protein degrader)-treated samples. The grayscale value of drug-treated bands is divided by that of internal control protein bands, and the resulting quotient is normalized to obtain the relative percentage of remaining target protein after protein degrader treatment.

IKZF3 = target: T2, IKZF3 (Homo sapiens, UniProt Q96SW2+Q9UKT9); assay: Western blot degradation of IKZF3 in hPBMC
T2 construct: endogenous in cells; host or cells: hPBMC
T2 sequence (Q9UKT9 whole entry): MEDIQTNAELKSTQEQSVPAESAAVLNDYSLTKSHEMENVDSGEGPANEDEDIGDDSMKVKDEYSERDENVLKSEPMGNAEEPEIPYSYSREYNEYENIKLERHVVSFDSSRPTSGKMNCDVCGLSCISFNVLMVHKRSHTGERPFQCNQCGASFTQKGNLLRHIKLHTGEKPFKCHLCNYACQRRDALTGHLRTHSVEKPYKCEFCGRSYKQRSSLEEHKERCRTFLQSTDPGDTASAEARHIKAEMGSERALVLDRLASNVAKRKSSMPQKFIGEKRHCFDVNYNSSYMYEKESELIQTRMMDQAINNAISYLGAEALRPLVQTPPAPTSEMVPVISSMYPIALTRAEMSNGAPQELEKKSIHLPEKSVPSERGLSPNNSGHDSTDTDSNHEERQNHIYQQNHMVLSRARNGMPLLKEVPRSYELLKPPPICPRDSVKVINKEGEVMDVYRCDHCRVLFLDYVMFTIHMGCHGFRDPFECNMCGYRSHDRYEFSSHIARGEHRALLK
T2 sequence (Q96SW2 whole entry): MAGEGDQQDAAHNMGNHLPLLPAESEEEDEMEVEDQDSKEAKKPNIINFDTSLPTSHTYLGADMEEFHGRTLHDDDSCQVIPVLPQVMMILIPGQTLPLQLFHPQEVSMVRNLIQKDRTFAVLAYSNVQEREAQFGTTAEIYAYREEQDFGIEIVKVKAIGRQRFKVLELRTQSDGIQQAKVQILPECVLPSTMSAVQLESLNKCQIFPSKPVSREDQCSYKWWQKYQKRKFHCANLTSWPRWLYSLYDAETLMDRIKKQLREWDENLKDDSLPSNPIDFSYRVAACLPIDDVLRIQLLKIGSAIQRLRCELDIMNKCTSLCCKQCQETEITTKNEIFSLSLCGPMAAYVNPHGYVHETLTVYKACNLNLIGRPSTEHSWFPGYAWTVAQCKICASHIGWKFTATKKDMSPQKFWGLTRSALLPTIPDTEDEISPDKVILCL
T2 sequence (Q16531 whole entry partner): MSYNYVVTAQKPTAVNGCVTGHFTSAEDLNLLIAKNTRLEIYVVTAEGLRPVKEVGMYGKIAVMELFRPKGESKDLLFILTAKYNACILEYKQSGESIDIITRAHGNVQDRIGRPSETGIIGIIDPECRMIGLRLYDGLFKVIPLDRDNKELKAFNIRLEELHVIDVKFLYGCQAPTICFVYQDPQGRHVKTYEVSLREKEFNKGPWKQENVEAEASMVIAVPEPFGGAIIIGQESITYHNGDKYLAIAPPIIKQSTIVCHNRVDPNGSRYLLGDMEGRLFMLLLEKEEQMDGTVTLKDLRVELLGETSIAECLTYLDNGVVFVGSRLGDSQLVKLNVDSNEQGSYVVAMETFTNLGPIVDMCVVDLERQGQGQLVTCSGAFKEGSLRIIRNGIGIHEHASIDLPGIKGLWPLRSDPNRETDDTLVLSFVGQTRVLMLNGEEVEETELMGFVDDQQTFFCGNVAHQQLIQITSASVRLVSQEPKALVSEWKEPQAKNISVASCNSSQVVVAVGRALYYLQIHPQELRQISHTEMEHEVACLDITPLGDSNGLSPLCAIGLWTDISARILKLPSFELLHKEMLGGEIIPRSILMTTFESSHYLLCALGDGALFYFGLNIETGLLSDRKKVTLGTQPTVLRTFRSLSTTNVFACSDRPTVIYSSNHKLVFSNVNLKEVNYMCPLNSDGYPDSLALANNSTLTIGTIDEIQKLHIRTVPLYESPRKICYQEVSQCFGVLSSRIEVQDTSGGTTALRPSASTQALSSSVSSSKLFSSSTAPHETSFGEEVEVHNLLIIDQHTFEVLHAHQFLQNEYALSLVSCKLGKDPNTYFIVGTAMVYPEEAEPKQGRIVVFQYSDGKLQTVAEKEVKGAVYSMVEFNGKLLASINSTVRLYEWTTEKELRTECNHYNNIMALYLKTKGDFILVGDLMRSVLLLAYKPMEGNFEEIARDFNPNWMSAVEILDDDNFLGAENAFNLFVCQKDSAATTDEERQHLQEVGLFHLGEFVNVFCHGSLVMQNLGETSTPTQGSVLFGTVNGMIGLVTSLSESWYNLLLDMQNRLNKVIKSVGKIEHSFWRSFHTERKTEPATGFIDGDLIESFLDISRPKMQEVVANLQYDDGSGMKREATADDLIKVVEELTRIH
Method: as §1, §2, §3, §4, §5, §6, §7

IKZF1 = target: T3, IKZF1 (Homo sapiens, UniProt Q13422+Q96SW2); assay: Western blot degradation of IKZF1 in hPBMC
T3 construct: endogenous in cells; host or cells: hPBMC
T3 sequence (Q13422 whole entry): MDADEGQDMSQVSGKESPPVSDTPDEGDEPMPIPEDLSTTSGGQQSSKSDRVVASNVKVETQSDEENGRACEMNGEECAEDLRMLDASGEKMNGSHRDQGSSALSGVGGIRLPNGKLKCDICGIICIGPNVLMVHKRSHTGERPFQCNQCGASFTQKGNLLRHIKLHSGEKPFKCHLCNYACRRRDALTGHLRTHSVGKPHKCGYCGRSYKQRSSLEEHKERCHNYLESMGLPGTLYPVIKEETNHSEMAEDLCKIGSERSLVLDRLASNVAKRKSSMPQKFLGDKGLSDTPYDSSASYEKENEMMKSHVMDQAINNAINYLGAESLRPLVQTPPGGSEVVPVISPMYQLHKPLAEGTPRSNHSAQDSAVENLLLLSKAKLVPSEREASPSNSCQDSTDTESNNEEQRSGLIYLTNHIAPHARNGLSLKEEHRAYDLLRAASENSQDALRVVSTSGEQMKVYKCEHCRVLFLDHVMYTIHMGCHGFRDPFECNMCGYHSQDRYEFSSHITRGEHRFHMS
T3 sequence (Q96SW2 whole entry): as the sequence (Q96SW2 whole entry) above
T3 sequence (Q16531 whole entry partner): as the sequence (Q16531 whole entry partner) above
Method: as §1, §2, §3, §4, §5, §6, §7

WEE1 = target: T4, WEE1 (Homo sapiens, UniProt P30291+Q96SW2); assay: Western blot degradation of WEE1 in hPBMC
T4 construct: endogenous in cells; host or cells: hPBMC
T4 sequence (P30291 whole entry): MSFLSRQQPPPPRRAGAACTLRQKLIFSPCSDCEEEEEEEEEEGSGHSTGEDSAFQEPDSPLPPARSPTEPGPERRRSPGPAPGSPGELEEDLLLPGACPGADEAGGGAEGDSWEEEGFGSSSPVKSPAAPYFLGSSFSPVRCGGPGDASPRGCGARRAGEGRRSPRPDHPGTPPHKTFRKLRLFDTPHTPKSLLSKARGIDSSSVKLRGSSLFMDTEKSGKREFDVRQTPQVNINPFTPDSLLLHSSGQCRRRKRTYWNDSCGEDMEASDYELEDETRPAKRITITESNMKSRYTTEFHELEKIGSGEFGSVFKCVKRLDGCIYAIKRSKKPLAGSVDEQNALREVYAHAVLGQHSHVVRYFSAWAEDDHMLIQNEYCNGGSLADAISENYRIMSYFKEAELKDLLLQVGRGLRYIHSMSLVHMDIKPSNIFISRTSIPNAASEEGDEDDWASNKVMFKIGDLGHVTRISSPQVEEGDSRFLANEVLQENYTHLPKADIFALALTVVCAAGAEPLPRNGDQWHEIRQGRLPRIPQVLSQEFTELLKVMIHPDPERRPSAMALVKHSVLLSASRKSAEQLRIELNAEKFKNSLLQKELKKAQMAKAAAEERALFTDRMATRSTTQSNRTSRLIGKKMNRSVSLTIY
T4 sequence (Q96SW2 whole entry): as the sequence (Q96SW2 whole entry) above
T4 sequence (Q16531 whole entry partner): as the sequence (Q16531 whole entry partner) above
Method: as §1, §2, §3, §4, §5, §6, §7

GSPT1 = target: T5, GSPT1 (Homo sapiens, UniProt P15170+Q96SW2); assay: Western blot degradation of GSPT1 in hPBMC
T5 construct: endogenous in cells; host or cells: hPBMC
Method: as §1, §2, §3, §4, §5, §6, §7

IKZF2 = target: T6, IKZF2 (Homo sapiens, UniProt Q96SW2+Q9UKS7); assay: Western blot degradation of IKZF2 in hPBMC
T6 construct: endogenous in cells; host or cells: hPBMC
T6 sequence (Q9UKS7 whole entry): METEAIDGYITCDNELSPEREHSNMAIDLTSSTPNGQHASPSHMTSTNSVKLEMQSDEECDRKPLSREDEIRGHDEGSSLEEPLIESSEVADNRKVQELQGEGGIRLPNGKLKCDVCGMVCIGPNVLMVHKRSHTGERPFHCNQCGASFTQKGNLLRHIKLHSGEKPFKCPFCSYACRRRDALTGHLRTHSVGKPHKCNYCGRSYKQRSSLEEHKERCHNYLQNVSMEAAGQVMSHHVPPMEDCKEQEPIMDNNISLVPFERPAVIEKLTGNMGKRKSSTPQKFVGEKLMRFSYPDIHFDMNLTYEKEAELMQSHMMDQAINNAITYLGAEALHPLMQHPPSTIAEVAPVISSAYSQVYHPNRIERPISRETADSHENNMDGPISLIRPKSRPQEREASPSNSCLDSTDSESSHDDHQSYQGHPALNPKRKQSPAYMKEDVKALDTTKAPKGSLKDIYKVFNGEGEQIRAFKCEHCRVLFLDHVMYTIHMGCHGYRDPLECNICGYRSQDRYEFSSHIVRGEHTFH
T6 sequence (Q96SW2 whole entry): as the sequence (Q96SW2 whole entry) above
T6 sequence (Q16531 whole entry partner): as the sequence (Q16531 whole entry partner) above
Method: as §1, §2, §3, §4, §5, §6, §7

T1 sequence (P48729 whole entry): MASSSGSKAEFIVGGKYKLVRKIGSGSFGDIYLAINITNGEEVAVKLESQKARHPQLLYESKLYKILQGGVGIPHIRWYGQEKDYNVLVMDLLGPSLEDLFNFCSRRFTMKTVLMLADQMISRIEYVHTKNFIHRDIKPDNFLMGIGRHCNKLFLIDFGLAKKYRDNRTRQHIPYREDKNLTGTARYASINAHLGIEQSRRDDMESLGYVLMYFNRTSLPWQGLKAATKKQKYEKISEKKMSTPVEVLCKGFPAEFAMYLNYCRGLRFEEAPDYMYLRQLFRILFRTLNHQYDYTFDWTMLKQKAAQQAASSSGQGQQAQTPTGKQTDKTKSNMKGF
T1 sequence (Q96SW2 whole entry): as the sequence (Q96SW2 whole entry) above
T1 sequence (Q16531 whole entry partner): as the sequence (Q16531 whole entry partner) above

Row | SMILES | Degradation of substrate protein CK1a (substrate protein remaining %) (CK1a) | Degradation of substrate protein IKZF3 (substrate protein remaining %) (IKZF3) | Degradation of substrate protein IKZF1 (substrate protein remaining %) (IKZF1) | Degradation of substrate protein WEE1 (substrate protein remaining %) (WEE1) | Degradation of substrate protein GSPT1 (substrate protein remaining %) (GSPT1) | Degradation of substrate protein IKZF2 (substrate protein remaining %) (IKZF2)
1 | O=C1CCC(Nc2ncc(CO)cn2)C(=O)N1 (stereo not drawn) [GT-07809, 3-((5-(hydroxymethyl)pyrimidin-2-yl)amino)piperidine-2,6-dione] | B (B is defined as substrate protein remaining % > 80%) | A (A is defined as 0% ≤ substrate protein remaining % ≤ 80%) | A (A is defined as 0% ≤ substrate protein remaining % ≤ 80%) | A (A is defined as 0% ≤ substrate protein remaining % ≤ 80%) | B (B is defined as substrate protein remaining % > 80%) | A (A is defined as 0% ≤ substrate protein remaining % ≤ 80%)
2 | CC(C)(C)[Si](C)(C)OCc1cncnc1NC1CCC(=O)NC1=O (stereo not drawn) [GT-07639, 3-((5-(((tert-butyldimethylsilyl)oxy)methyl)pyrimidin-4-yl)amino)piperidine-2,6-dione] | A (A is defined as 0% ≤ substrate protein remaining % ≤ 80%) | A (A is defined as 0% ≤ substrate protein remaining % ≤ 80%) | A (A is defined as 0% ≤ substrate protein remaining % ≤ 80%) | A (A is defined as 0% ≤ substrate protein remaining % ≤ 80%) | A (A is defined as 0% ≤ substrate protein remaining % ≤ 80%) | A (A is defined as 0% ≤ substrate protein remaining % ≤ 80%)
3 | O=C1CCC(c2ccc(CO)nc2F)C(=O)N1 (stereo not drawn) [GT-07558, 3-(2-fluoro-6-(hydroxymethyl)pyridin-3-yl)piperidine-2,6-dione] | A (A is defined as 0% ≤ substrate protein remaining % ≤ 80%) | B (B is defined as substrate protein remaining % > 80%) | A (A is defined as 0% ≤ substrate protein remaining % ≤ 80%) | A (A is defined as 0% ≤ substrate protein remaining % ≤ 80%) | B (B is defined as substrate protein remaining % > 80%) | B (B is defined as substrate protein remaining % > 80%)
4 | O=C1CCC(Nc2ccc(CO)nn2)C(=O)N1 (stereo not drawn) [GT-07803, 3-((6-(hydroxymethyl)pyridazin-3-yl)amino)piperidine-2,6-dione] | B (B is defined as substrate protein remaining % > 80%) | A (A is defined as 0% ≤ substrate protein remaining % ≤ 80%) | A (A is defined as 0% ≤ substrate protein remaining % ≤ 80%) | B (B is defined as substrate protein remaining % > 80%) | B (B is defined as substrate protein remaining % > 80%) | A (A is defined as 0% ≤ substrate protein remaining % ≤ 80%)
5 | CC(C)(C)[Si](C)(C)OCc1cc(NC2CCC(=O)NC2=O)ncc1F (stereo not drawn) [GT-07724, 3-((4-(((tert-butyldimethylsilyl)oxy)methyl)-5-fluoropyridin-2-yl)amino)piperidine-2,6-dione] | B (B is defined as substrate protein remaining % > 80%) | A (A is defined as 0% ≤ substrate protein remaining % ≤ 80%) | A (A is defined as 0% ≤ substrate protein remaining % ≤ 80%) | A (A is defined as 0% ≤ substrate protein remaining % ≤ 80%) | A (A is defined as 0% ≤ substrate protein remaining % ≤ 80%) | A (A is defined as 0% ≤ substrate protein remaining % ≤ 80%)
6 | O=C1CCN(c2cnc(F)c(CO)c2)C(=O)N1 [GT-07556, 1-(6-fluoro-5-(hydroxymethyl)pyridin-3-yl)dihydropyrimidine-2,4(1H,3H)-dione] | A (A is defined as 0% ≤ substrate protein remaining % ≤ 80%) | A (A is defined as 0% ≤ substrate protein remaining % ≤ 80%) | A (A is defined as 0% ≤ substrate protein remaining % ≤ 80%) | A (A is defined as 0% ≤ substrate protein remaining % ≤ 80%) | B (B is defined as substrate protein remaining % > 80%) | B (B is defined as substrate protein remaining % > 80%)
7 | NCc1ccnc(N2CCC(=O)NC2=O)c1 [GT-07198, 1-(4-(aminomethyl)pyridin-2-yl)dihydropyrimidine-2,4(1H,3H)-dione] | B (B is defined as substrate protein remaining % > 80%) | A (A is defined as 0% ≤ substrate protein remaining % ≤ 80%) | B (B is defined as substrate protein remaining % > 80%) | B (B is defined as substrate protein remaining % > 80%) | B (B is defined as substrate protein remaining % > 80%) | B (B is defined as substrate protein remaining % > 80%)
8 | NCc1cc(N2CCC(=O)NC2=O)cnc1F [GT-07729, 1-(5-(aminomethyl)-6-fluoropyridin-3-yl)dihydropyrimidine-2,4(1H,3H)-dione] | B (B is defined as substrate protein remaining % > 80%) | A (A is defined as 0% ≤ substrate protein remaining % ≤ 80%) | A (A is defined as 0% ≤ substrate protein remaining % ≤ 80%) | A (A is defined as 0% ≤ substrate protein remaining % ≤ 80%) | A (A is defined as 0% ≤ substrate protein remaining % ≤ 80%) | A (A is defined as 0% ≤ substrate protein remaining % ≤ 80%)
9 | O=Cc1cccnc1NC1CCC(=O)NC1=O (stereo not drawn) [GT-07447, 2-((2,6-dioxopiperidin-3-yl)amino)nicotinaldehyde] | A (A is defined as 0% ≤ substrate protein remaining % ≤ 80%) | A (A is defined as 0% ≤ substrate protein remaining % ≤ 80%) | A (A is defined as 0% ≤ substrate protein remaining % ≤ 80%) | A (A is defined as 0% ≤ substrate protein remaining % ≤ 80%) | A (A is defined as 0% ≤ substrate protein remaining % ≤ 80%) | A (A is defined as 0% ≤ substrate protein remaining % ≤ 80%)
10 | O=C1CCC(c2ncccc2CO)C(=O)N1 (stereo not drawn) [GT-07370, 3-(3-(hydroxymethyl)pyridin-2-yl)piperidine-2,6-dione] | A (A is defined as 0% ≤ substrate protein remaining % ≤ 80%) | B (B is defined as substrate protein remaining % > 80%) | B (B is defined as substrate protein remaining % > 80%) | B (B is defined as substrate protein remaining % > 80%) | A (A is defined as 0% ≤ substrate protein remaining % ≤ 80%) | B (B is defined as substrate protein remaining % > 80%)
11 | O=Cc1ccnc(NC2CCC(=O)NC2=O)c1 (stereo not drawn) [GT-07553, 2-((2,6-dioxopiperidin-3-yl)amino)isonicotinaldehyde] | B (B is defined as substrate protein remaining % > 80%) | B (B is defined as substrate protein remaining % > 80%) | A (A is defined as 0% ≤ substrate protein remaining % ≤ 80%) | A (A is defined as 0% ≤ substrate protein remaining % ≤ 80%) | B (B is defined as substrate protein remaining % > 80%) | A (A is defined as 0% ≤ substrate protein remaining % ≤ 80%)
